# Experimental data published in PubChem BioAssay (NCI).
#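 Method: 48-hour compound exposure of cells in 96-well plates, five concentrations, linear interpolation of endpoints. GI50 = concentration required for 50% inhibition of growth. At the TGI there is no net growth.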
# Key:
# Assay in all cases: NCI anticancer screen, dose series, 48 h
# OVCAR-4 ovarian = system: OVCAR-4 ovarian
# HCT-116 colon = system: HCT-116 colon
# NCI/ADR-RES ovarian = system: NCI/ADR-RES ovarian
# CAKI-1 renal = system: CAKI-1 renal
# A549 NSCLC = system: A549 NSCLC
# UACC-257 melanoma = system: UACC-257 melanoma
# SNB-19 CNS = system: SNB-19 CNS
# SNB-75 CNS = system: SNB-75 CNS
# SW-620 colon = system: SW-620 colon
# HCC-2998 colon = system: HCC-2998 colon
SMILES,GI50 (OVCAR-4 ovarian) [µM],TGI (OVCAR-4 ovarian) [µM],GI50 (HCT-116 colon) [µM],TGI (HCT-116 colon) [µM],GI50 (NCI/ADR-RES ovarian) [µM],TGI (NCI/ADR-RES ovarian) [µM],GI50 (CAKI-1 renal) [µM],TGI (CAKI-1 renal) [µM],GI50 (A549 NSCLC) [µM],TGI (A549 NSCLC) [µM],GI50 (UACC-257 melanoma) [µM],TGI (UACC-257 melanoma) [µM],GI50 (SNB-19 CNS) [µM],TGI (SNB-19 CNS) [µM],GI50 (SNB-75 CNS) [µM],TGI (SNB-75 CNS) [µM],GI50 (SW-620 colon) [µM],TGI (SW-620 colon) [µM],TGI (HCC-2998 colon) [µM],GI50 (HCC-2998 colon) [µM]
O=c1c(-c2ccccc2)coc2cc(OC/C(=N/O)c3ccc(F)cc3)ccc12,13.7,59.3,16,47.7,23.9,62.3,0.0715,26.3,13.6,35.9,10.2,27.3,18.7,53.5,16.8,92.9,17.1,33.4,–,–
COCCOCOC(C)(C)[C@H](CCOC(C)=O)O[Si](c1ccccc1)(c1ccccc1)C(C)(C)C,–,> 100,–,> 100,–,–,–,> 100,–,> 100,–,31.1,–,> 100,–,> 100,–,> 100,26,–
NC(=O)C12CC3CC(CC(Br)(C3)C1)C2,–,> 100,–,> 100,–,–,–,> 100,–,> 100,–,> 100,–,> 100,–,> 100,–,> 100,> 100,–
O=C(CCc1nc(=S)[nH][nH]1)Nc1cccc(C(F)(F)F)c1,–,> 100,–,> 100,–,–,–,> 100,–,> 100,–,> 100,–,> 100,–,> 100,–,28.5,> 100,–
COc1ccc(-c2onc(-c3c(C)cc(C)cc3C)c2C2=NCCN2)cc1,–,> 100,–,> 100,–,–,–,> 100,–,> 100,–,46.1,–,> 100,–,> 100,–,> 100,> 100,–
CCCCc1c2c(nc3c1CCc1cc4cc5c(nc4nc1-3)-c1nc3c(c(CCCC)c1CC5)CCC/C3=C\c1ccccc1)/C(=C/c1ccccc1)CCC2,–,–,–,> 100,–,–,–,–,–,> 100,–,> 100,–,> 100,–,> 100,–,> 100,> 100,–
CC(=O)NNc1nc(C)c(C(=O)/C=C/c2ccc(/C=C/C(=O)c3sc(NNC(C)=O)nc3C)cc2)s1,–,> 100,–,> 100,–,–,–,> 100,–,> 100,–,> 100,–,> 100,–,–,–,> 100,> 100,–
CCC1C(=O)OCc2c1cc1n(c2=O)C(CC)c2c-1nc1ccccc1c2Cl (configuration not stated),–,> 100,–,–,–,–,–,> 100,–,> 100,–,92.6,–,> 100,–,–,–,> 100,–,–
C#C[C@H]1CCCCCC1O (some centres not stated),–,> 100,–,> 100,–,–,–,> 100,–,> 100,–,> 100,–,> 100,–,> 100,–,69.8,> 100,–
CCCCCCCCCCCCCP(=O)(NCC(N)=O)OCC (configuration not stated),–,32.2,–,28,–,–,–,–,–,40.7,–,36.1,–,34.3,–,19.9,–,41,35.3,–
CN1CCc2c1nc(-c1cccnc1)c1c2N(C)CC1,–,> 100,–,> 100,–,–,–,> 100,–,> 100,–,> 100,–,> 100,–,> 100,–,> 100,> 100,–
COC(=O)C#CCC1CCCC1C1SCCS1 (configuration not stated),–,> 100,–,> 100,–,–,–,> 100,–,> 100,–,> 100,–,> 100,–,> 100,–,> 100,> 100,–
O=C(N/C(=C\c1cc(Cl)ccc1Cl)c1nc2ccc(Cl)cc2[nH]1)c1ccccc1,–,68.6,–,22.3,–,–,–,66.4,–,38.1,–,28.3,–,60.1,–,35.2,–,31.1,32.4,–
Clc1ccccc1NN(Cc1ccncc1)c1ccccc1Cl,–,25.2,–,25.7,–,32,–,–,–,29.8,–,–,–,37,–,32.1,–,35.1,–,–
CC1=C(Cl)C[C@@H](/C(C)=C\Cl)O[C@@]1(O)C(Br)Br,–,> 100,–,> 100,–,–,–,35.4,–,60.3,–,> 100,–,> 100,–,> 100,–,> 100,99.6,–
COc1ccc2c(c1)C(=O)c1c-2c(N2CCNCC2)nc2ccccc12,9.93,27.1,–,–,6.33,23.7,11.5,30.3,3.3,15.8,2.38,5.11,5.44,20.7,10.9,26.5,1.32,2.6,–,–
O=C(Nc1cnc(C(F)(F)F)cn1)c1cc(Cl)ccc1O,0.254,> 100,0.246,1.4,0.279,13.6,–,–,0.377,> 100,0.267,0.781,0.403,> 100,0.194,0.835,0.348,> 100,4.6,0.294
Nc1ncnc2c1nnn2C1C=C(CO)C(O)C1O (configuration not stated),–,> 100,–,> 53.3,–,–,–,> 100,–,> 100,–,> 100,–,> 100,–,> 96.1,–,> 63.1,> 100,–
COC1(C)C(=O)N2C1N(C(=O)OCc1ccccc1)CC2(C)C (configuration not stated),–,> 100,–,> 100,–,–,–,–,–,> 100,–,> 100,–,> 100,–,> 100,–,> 100,> 100,–
Nc1ncccc1-c1nc2ccc(-c3ccccc3)nc2n1-c1ccc(C2(N)CCC2)cc1,4.06,18.7,1.43,2.91,2.43,14.6,–,–,1.69,6.81,1.28,2.73,1.5,3.67,0.0859,1.7,1.53,3.35,2.77,1.19
O=C(NCC(=O)N1CCOC1=O)OCc1ccccc1,–,> 100,–,> 100,–,–,–,–,–,> 100,–,> 100,–,> 100,–,> 100,–,> 100,> 100,–
